The results in this text go back to US20240335382A1, “NANO- OR MICRO-EMULSION COMPOSITIONS AND METHODS OF USE THEREOF” (Nutraceutical Wellness, Inc., priority 2021, published 2024).

Each structure is given as a SMILES string.

The test system of the series is skin of human subjects. Put plainly: Acute primary skin patch test, single 48-hour application. The conditions noted are these: positive control, 55 subjects completing study. It is filed as in vivo. As for the experimental part: To determine the primary (acute) irritation potential of a test material after a single application to the skin of human subjects for 48 hours.
Test materials to be tested under occlusive conditions were placed on an 8-millimeter aluminum Finn Chamber® (Epitest Ltd. Oy, Tuusula, Finland) supported on Scanpor® Tape (Norgesplaster A/S, Kristiansand, Norway) or an 8-millimeter filter paper coated aluminum Finn Chamber® AQUA supported on a thin flexible transparent polyurethane rectangular film coated on one side with a medical grade acrylic adhesive, consistent with adhesive used in state-of-the-art hypoallergenic surgical tapes or a 7 mm IQ-ULTRA® closed cell system which is made of additive-free polyethylene plastic foam with a filter paper incorporated (It is supplied in units of 10 chambers on a hypoallergenic non woven adhesive tape; the width of the tape is 52 mm and the length is 118 mm) or other equivalents.
Test materials to be tested under semi-occlusive conditions were placed on a test strip with a Rayon/Polypropylene pad or on a 7.5 mm filter paper disc affixed to a strip of hypoallergenic tape (Johnson & Johnson 1 inch First Aid Cloth Tape). […]
Trained skin grading laboratory personnel removed the patch and evaluated the test sites.
In the event of an adverse reaction, the area of erythema and edema is measured. […]

`CCCCCCCCCCCCOS(=O)(=O)[O-].[Na+]` [2.0% Sodium Lauryl Sulfate Solution, Sodium Lauryl Sulfate]: the “subjects with a Grade 1 reaction” value was determined as 16 subjects.
